The values that follow come from BindingDB's records for doi:10.1021/acs.jmedchem.9b01348 (West China Hospital of Sichuan University, 2019).

A short description of the test: Inhibition of JAK2 V617F mutant in BAF3 cells assessed as reduction in cell growth measured after 72 hrs by MTT assay. (In general: Tetrazolium dyes change colour on reduction, which living cells bring about.)

pIC50: −log10 of the molar value.

On to `C1=C/COCc2cc(ccc2OCCN2CCCC2)Nc2nccc(n2)-c2cccc(c2)COC/1` [ONX-0803], for which the pIC50 is 5.97.

A word on the pIC50: it is −log10 of the IC50, conventionally taken in molar units.
